The text below walks through data of patent US5843969A, “Protecting agent for organ or tissue” (Teijin Limited, priority 1995, dated 1998).

The test system of series [1] is DNFB-sensitized mice. As to the kind of experiment: body weight in DNFB-sensitized mice (allergic dermatitis model). In kind it is in vivo, BALB/c mouse. The settings on record: survived animals. The procedure: (§1) Therefore, the presence of such side effects was examined on the active component of the agent of the present invention by using a mouse allergic dermatitis model.
Hair was removed from the abdomen to the breast of a BALB/c mouse (male, 8 weeks of age) with hair clippers and a shaver. A 0.5% dinitro-fluorobenzene (DNFB) ethanol solution (100 μl head/day) was applied on the hair-removed part one day and two days after the removal of hair to establish sensitization. 2-(3-Cyano-4-isobutyloxyphenyl)-4-methyl-5-thiazolecarboxylic acid, the active component of the present invention, and allopurinol are each suspended in a 0.5% methylcellulose aqueous solution. Each suspension (3, 10, 30 and 100 mg/kg/10 ml/day) was orally administered to an animal at the same time of each DNFB sensitization. The number of animals is 8 for each of a 3- and a 10-mg/kg/10 ml/day group, and 10 for each of a 30- and a 100-mg/kg/10 ml/day group in each of the active component and the allopurinol. As the control group, 10 ml/kg of 0.5% methylcellulose aqueous solution, the solvent for the active component and allopurinol, was administered to each of 8 sensitized animals.
The variations with time of the survival rate and the body weights of the mice administered with the agents were followed up to the 6th day after the final sensitization and recorded. For survived sensitized animals, a 0.3% DNFB acetone-olive oil (4:1) mixed solution (10 μl on each of the obverse and the reverse side of an ear) was applied on one ear to elicit an immune reaction and an acetone-olive oil (4:1) mixed solution (10 μl on each of the obverse and the reverse side of an ear) was applied on the other ear on the sixth day after the final sensitization. The ear thicknesses were measured with a dial thickness gauge (Ozaki Seisakusho, G-1A) before the elicitation, and 24 hr and 48 hr after the elicitation.
(§2) The variations of the body weights and the ear thicknesses were expressed as the mean ± standard deviation for each group. […]

In a further series the test system is rats. The series can be described thus: acute toxicity test, single oral administration in rats. The format is in vivo, rat. The settings on record: single oral administration up to 300 mg/kg. The method, then:
Further, for the safety evaluation of the agent of the present invention, an acute toxicity test is carried out with rats in terms of 2-(3-cyano-4-isobutyloxyphenyl)-4-methyl-5-thiazolecarboxylic acid as the active component.

The test system of series [2] is ischemia-reperfusion injury model of kidney. As to the kind of experiment: renal ischemia-reperfusion injury model in rats, serum BUN level. In kind it is in vivo, SD rat. The settings on record: 50 mg/kg oral 60 min prior to 60-min ischemia; 24-hour reperfusion; compared with control group (FIG. 2). The procedure: (§3) An ischemia-reperfusion injury model of kidney for studying effect on the ischemia-reperfusion injury was prepared with a rat as shown below, and the effect of the administration of the active component of the agent of the present invention was studied by using the model animal.
(§4) The abdomen of an SD rat (male, 6 weeks of age) was opened under anesthesia with sodium pentobarbital, the separated left and right renal arteries were clamped with arterial clips to block the blood flow completely, and the kidneys were brought into an ischemic state. After 60-minute ischemia, the artery clamps were released, and blood flow was restarted to bring the kidneys to a reperfused state. After the suture of the opened abdomen, the animal was returned to a cage and allowed to have free access to food and water. […]
(§5) Serum was separated from the obtained blood sample by centrifugation. Blood urea nitrogen (BUN) level and serum creatinine (Cre) level, a parameter for kidney function injury, were determined on the serum using an automated analyzer (Hitachi 7070) by an urease-indophenol method and Jaffe method, respectively.
(§6) 2-(3-Cyano-4-isobutyloxyphenyl)-4-methyl-5-thiazolecarboxylic acid, the active component, was suspended in a 0.5% methylcellulose aqueous solution. […] The results were each expressed as the mean ± standard deviation. […]

The next series deals with RBL-1 cells. The series can be described thus: leukotriene B4 production in cultured RBL-1 cells (A23187 stimulated, enzyme immunoassay). In kind it is cell-based. The procedure:
RBL-1 cells (Dainippon Pharmaceutical Co.) were cultured in a Dulbecco's Modified Eagle's Medium containing fetal bovine serum in an amount of 10%. The cultured cells were adjusted to 5×10^6 cells/ml. […] After incubated at 37° C. for 5 min, this was immersed into ice and kept for 10 min. Subsequently, 2×10^-5 mol of A23187, Ca-ionophore, was added to the chilled cell suspension to make the final concentration of […], and the cell suspension was incubated again at 37° C. for 15 min. Further, the suspension was held in ice for 10 min. The suspension was subjected to centrifugation at 3000 rpm for 10 min and the cells were removed. Leukotriene B4 (LTB4) level in the supernatant was measured by enzyme immunoassay. […] A significant difference test against the control group was carried out using Bonferroni's test of a multiple comparison.

The subject of series [3] is DNFB-sensitized mice. The series can be described thus: ear thickness after elicitation of immune reaction in DNFB-sensitized mice. The format is in vivo, BALB/c mouse. The procedure:
as §1
(§7) Hair was removed from the abdomen to the breast of a BALB/c mouse (male, 8 weeks of age) with hair clippers and a shaver. A 0.5% dinitro-fluorobenzene (DNFB) ethanol solution (100 μl head/day) was applied on the hair-removed part one day and two days after the removal of hair to establish sensitization. 2-(3-Cyano-4-isobutyloxyphenyl)-4-methyl-5-thiazolecarboxylic acid, the active component of the present invention, and allopurinol are each suspended in a 0.5% methylcellulose aqueous solution. Each suspension (3, 10, 30 and 100 mg/kg/10 ml/day) was orally administered to an animal at the same time of each DNFB sensitization. […]
(§8) The variations with time of the survival rate and the body weights of the mice administered with the agents were followed up to the 6th day after the final sensitization and recorded. […] The ear thicknesses were measured with a dial thickness gauge (Ozaki Seisakusho, G-1A) before the elicitation, and 24 hr and 48 hr after the elicitation.
as §2

Series [4] relates to ischemia-reperfusion injury model of kidney. The series can be described thus: renal ischemia-reperfusion injury model in rats, serum creatinine (Cre) level. The format is in vivo, SD rat. The settings on record: 50 mg/kg oral 60 min prior to 60-min ischemia; 24-hour reperfusion; mean ± standard deviation; control 3.6±0.4, sham 0.4±0.0; p<0.05 vs control. The procedure:
as §3, §4, §5, §6

Series [5] deals with DNFB-sensitized mice. The series can be described thus: survival rate in DNFB-sensitized mice (allergic dermatitis model). The settings on record: 3, 10, 30 and 100 mg/kg/day oral; up to 6th day after final sensitization (FIGS. 4A and 4B). The format is in vivo, BALB/c mouse. The procedure:
as §1, §7, §8, §2

For series [6] the following is noted: clinical application; The Journal of Medicine 1984; The Annals of Pharmacotherapy 1993; cited from earlier work.

Each structure is given as a SMILES string.

Take `Cc1nc(-c2ccc(OCC(C)C)c(C#N)c2)sc1C(=O)O` [2-(3-cyano-4-isobutyloxyphenyl)-4-methyl-5-thiazolecarboxylic acid]: the body weight change entry in the series with DNFB-sensitized mice [1] (3, 10, 30 and 100 mg/kg/day oral, up to 6th day after final sensitization (FIG. 5A)) is listed as “did not produce a significant change on the body weights of the animals”. In addition, in the series with rats, the death of rats entry is reported as “None of rats died”. Besides, the “serum BUN level” value in series [2] is “exhibited a tendency to suppress the increase of the serum BUN”. Moreover, the LTB4 production entry in the series with RBL-1 cells (1×10^-8 mol (final concentration of 10 μM), p<0.001 vs control (FIG. 3)) was “suppresses the production of LTB4 significantly”. The “increase of the ear thickness” value in the series with DNFB-sensitized mice [3] (3, 10, 30 and 100 mg/kg/day oral, 24 hr and 48 hr after elicitation (FIG. 6)) was “none of the effect in terms of the increase of the ear thicknesses was observed”. For the same compound, the “serum Cre level” value in series [4] was 2.3 ± 1.1 mg/dL. Also, the survival rate entry in the series with DNFB-sensitized mice [5] was “all animals were survived, excluding one animal of the 100 mg/kg/day group”.
As for `Oc1ncnc2[nH]ncc12` [allopurinol, reference compound], the body weight change result in the series on DNFB-sensitized mice [1] (30 mg/kg oral, p<0.01 vs control (FIG. 5B)) is “decreased the body weights of the animals significantly”; in the series on DNFB-sensitized mice [1] (100 mg/kg oral, p<0.05 vs control (FIG. 5B)) it was “decreased the body weights of the animals significantly”. For the same compound, in series [6], the side effects entry is “side effects including an allergy reaction during clinical application and occasionally the side effect is so severe that the patient is brought to death”. Also, in the series on RBL-1 cells (up to 1×10^-8 mol (final concentration of up to 10 μM) (FIG. 3)), the LTB4 production entry is on record as “had no effect on the production”. Moreover, the “increase of the ear thickness and allergy reaction” value in the series on DNFB-sensitized mice [3] (30 mg/kg oral, after elicitation, p<0.05 vs control (FIG. 6)) was “stimulated the increase of the ear thicknesses, and the allergy reaction significantly”. Besides, the survival rate entry with DNFB-sensitized mice [5] was “survival rate decreased dose-dependently with time from a low dose level”.
